Experimental findings from article PMC2248166, “Quantitative peptide binding motifs for 19 human and mouse MHC class I molecules derived using positional scanning combinatorial peptide libraries” (Immunome Research, 2008) are described below.

Where a SMILES comes first, the peptide text is derived from it.

This experiment has as its target HLA B*1503 (Homo sapiens, UniProt P01889, A329T/A93T/A95T/C349S/D201E/D98Y/E187L/E204Q/K202T/N87E/Q94N/R155S/R180L/S121R/S35A/V306I/V36M/Y140S/Y91S). Description: biochemical. Type of experiment: binding.

For the compound `CC[C@H](C)[C@H](NC(=O)[C@H](CO)NC(=O)[C@H](CO)NC(=O)[C@H](CO)NC(=O)[C@H](Cc1ccc(O)cc1)NC(=O)[C@H](C)NC(=O)[C@H](CC(C)C)NC(=O)[C@@H](N)C(C)C)C(=O)N[C@@H](Cc1ccccc1)C(=O)O` [3102.1150] (H-VLAYSSSIF-OH), the IC50 stood at 5.4 nM. Compound `CSCC[C@H](NC(=O)[C@@H](NC(=O)[C@H](CO)NC(=O)[C@@H](NC(=O)[C@H](Cc1ccc(O)cc1)NC(=O)[C@@H](NC(=O)[C@H](Cc1ccccc1)NC(=O)[C@H](CCCCN)NC(=O)[C@@H](N)CO)C(C)C)C(C)C)C(C)C)C(=O)O` [3102.1213] (H-SKFVYVSVM-OH) came in with an IC50 of 1.6 nM.

Consider `CC[C@H](C)[C@H](NC(=O)[C@@H](NC(=O)[C@@H](NC(=O)[C@H](CCCNC(=N)N)NC(=O)[C@H](CC(N)=O)NC(=O)[C@H](Cc1ccccc1)NC(=O)[C@H](CO)NC(=O)[C@@H](N)C(C)C)C(C)C)C(C)C)C(=O)N[C@@H](Cc1ccccc1)C(=O)O` [3102.1059] (H-VSFNRVVIF-OH), for which the IC50 was 1.1 nM. With `C[C@@H](O)[C@H](N)C(=O)N[C@@H](CCCCN)C(=O)N[C@@H](Cc1ccccc1)C(=O)N[C@H](C(=O)N[C@@H](CC(=O)O)C(=O)N[C@@H](Cc1ccccc1)C(=O)N[C@@H](CCC(N)=O)C(=O)N[C@@H](CC(=O)O)C(=O)N[C@@H](Cc1ccccc1)C(=O)O)[C@@H](C)O` [3102.1078] (H-TKFTDFQDF-OH) the figure was 2.2 nM. The result for `CC[C@H](C)[C@H](NC(=O)[C@@H]1CCCN1C(=O)CNC(=O)[C@H](Cc1ccccc1)NC(=O)[C@H](Cc1ccccc1)NC(=O)[C@@H](NC(=O)[C@H](CCCCN)NC(=O)[C@@H](N)CO)C(C)C)C(=O)N[C@@H](Cc1ccc(O)cc1)C(=O)O` [3102.1134] (H-SKVFFGPIY-OH) reads 1 nM. With `CC[C@H](C)[C@H](N)C(=O)N[C@@H](CCCCN)C(=O)N[C@@H](CCCNC(=N)N)C(=O)N[C@H](C(=O)N[C@@H](CO)C(=O)N[C@@H](CO)C(=O)N[C@@H](CO)C(=O)N[C@@H](CC(=O)O)C(=O)N[C@@H](Cc1ccccc1)C(=O)O)C(C)C` [3102.1239] (H-IKRVSSSDF-OH) the figure was 1.8 nM; with `CC[C@H](C)[C@H](NC(=O)[C@@H](NC(=O)[C@H](CC(N)=O)NC(=O)[C@H](CCC(=O)O)NC(=O)[C@@H]1CCCN1C(=O)[C@H](CO)NC(=O)[C@H](C)NC(=O)[C@H](CCSC)NC(=O)[C@@H](N)Cc1ccccc1)C(C)C)C(=O)O` [3102.1095] (H-FMASPENVI-OH), 6.4 nM. Compound `CC[C@H](C)[C@H](NC(=O)[C@H](CC(N)=O)NC(=O)[C@@H](NC(=O)[C@H](CCCCN)NC(=O)[C@@H](N)Cc1ccccc1)[C@@H](C)CC)C(=O)N[C@@H](Cc1ccccc1)C(=O)N[C@@H](CCSC)C(=O)N[C@@H](C)C(=O)N[C@@H](Cc1ccccc1)C(=O)O` [3102.1074] (H-FKINIFMAF-OH) came in with an IC50 of 10 nM. With `CSCC[C@H](NC(=O)[C@H](CO)NC(=O)[C@H](Cc1ccccc1)NC(=O)[C@H](CC(N)=O)NC(=O)[C@@H](NC(=O)[C@H](CCSC)NC(=O)[C@@H](N)Cc1ccccc1)[C@@H](C)O)C(=O)N[C@H](C(=O)N[C@@H](Cc1ccc(O)cc1)C(=O)O)C(C)C` [3102.1186] (H-FMTNFSMVY-OH), the IC50 came to 2.3 nM. With `CC(C)[C@H](NC(=O)[C@H](CCC(N)=O)NC(=O)[C@@H](N)CCCNC(=N)N)C(=O)N[C@H](C(=O)N[C@@H](CC(=O)O)C(=O)N[C@@H](Cc1ccccc1)C(=O)N[C@@H](Cc1ccccc1)C(=O)N[C@@H](CCCCN)C(=O)N[C@@H](Cc1ccccc1)C(=O)O)C(C)C` [3102.1123] (H-RQVVDFFKF-OH) the figure was 0.34 nM; with `CC[C@H](C)[C@H](N)C(=O)N[C@@H](CCSC)C(=O)N[C@H](C(=O)N[C@@H](CO)C(=O)NCC(=O)N[C@H](C(=O)N[C@H](C(=O)N1CCC[C@H]1C(=O)N[C@@H](Cc1ccccc1)C(=O)O)[C@@H](C)CC)C(C)C)[C@@H](C)O` [3102.1305] (H-IMTSGVIPF-OH), 0.22 nM; with `CC(C)C[C@H](NC(=O)[C@@H](N)CCCCN)C(=O)N[C@H](C(=O)N[C@@H](CO)C(=O)N[C@H](C(=O)N[C@@H](CCC(=O)O)C(=O)N[C@H](C(=O)N[C@@H](CO)C(=O)N[C@@H](Cc1ccccc1)C(=O)O)[C@@H](C)O)[C@@H](C)O)[C@@H](C)O` [3102.1165] (H-KLTSTETSF-OH), 25 nM. Regarding `CC[C@H](C)[C@H](NC(=O)[C@@H](NC(=O)[C@H](C)NC(=O)[C@H](CS)NC(=O)[C@H](CCCNC(=N)N)NC(=O)[C@@H](NC(=O)[C@@H](N)Cc1ccccc1)[C@@H](C)O)C(C)C)C(=O)N1CCC[C@H]1C(=O)N[C@@H](Cc1ccccc1)C(=O)O` [3102.1166] (H-FTRCAVIPF-OH), the IC50 was 5.4 nM. `CC[C@H](C)[C@H](NC(=O)[C@H](Cc1ccc(O)cc1)NC(=O)[C@H](CO)NC(=O)[C@@H]1CCCN1C(=O)[C@H](Cc1ccc(O)cc1)NC(=O)[C@H](CCSC)NC(=O)[C@@H](N)CO)C(=O)N[C@@H](CCC(=O)O)C(=O)N[C@@H](Cc1ccccc1)C(=O)O` [3102.1196] (H-SMYPSYIEF-OH) registered a concentration for half-maximal inhibition (IC50) of 0.11 nM. The result for `CC[C@H](C)[C@H](NC(=O)[C@@H](NC(=O)[C@@H]1CCCN1C(=O)[C@H](CCC(=O)O)NC(=O)[C@H](CO)NC(=O)[C@H](CO)NC(=O)[C@H](CCSC)NC(=O)[C@@H](N)Cc1ccc(O)cc1)[C@@H](C)CC)C(=O)N[C@@H](Cc1ccccc1)C(=O)O` [3102.1094] (H-YMSSEPIIF-OH) reads 0.3 nM; that for `CC(C)C[C@H](NC(=O)[C@@H](NC(=O)[C@H](CCCNC(=N)N)NC(=O)[C@H](CC(N)=O)NC(=O)[C@H](CC(N)=O)NC(=O)[C@H](CCCCN)NC(=O)[C@@H](N)CCCCN)C(C)C)C(=O)N[C@@H](CS)C(=O)N[C@@H](Cc1ccccc1)C(=O)O` [3102.1237] (H-KKNNRVLCF-OH), 1.6 nM. For the compound `CC(C)C[C@H](NC(=O)[C@H](CO)NC(=O)[C@H](CO)NC(=O)[C@@H](NC(=O)[C@H](CCC(=O)O)NC(=O)[C@@H](NC(=O)[C@H](CO)NC(=O)[C@H](CCCCN)NC(=O)[C@@H](N)CC(C)C)C(C)C)[C@@H](C)O)C(=O)O` [3102.1056] (H-LKSVETSSL-OH), the IC50 turned out to be 3.8 nM.

With `CC(C)C[C@H](NC(=O)[C@H](CC(N)=O)NC(=O)[C@H](C)NC(=O)[C@H](CO)NC(=O)[C@H](CC(C)C)NC(=O)[C@H](CCCNC(=N)N)NC(=O)[C@H](CC(C)C)NC(=O)[C@@H](N)Cc1ccccc1)C(=O)N[C@@H](Cc1ccccc1)C(=O)O` [3102.1266] (H-FLRLSANLF-OH), the half-inhibitory concentration (IC50) was 0.12 nM.

Consider `CC[C@H](C)[C@H](NC(=O)[C@H](CO)NC(=O)[C@H](CO)NC(=O)[C@H](CCC(=O)O)NC(=O)[C@H](CC(N)=O)NC(=O)[C@H](Cc1ccccc1)NC(=O)[C@@H](NC(=O)[C@H](CCC(N)=O)NC(=O)[C@@H](N)Cc1ccccc1)C(C)C)C(=O)O` [3102.1082] (H-FQVFNESSI-OH), for which the 50% inhibitory concentration (IC50) is 5 nM. The result for `CSCC[C@H](NC(=O)[C@@H](N)CCCCN)C(=O)N[C@H](C(=O)N[C@@H](Cc1ccc(O)cc1)C(=O)N[C@@H](C)C(=O)N[C@@H](CC(C)C)C(=O)N[C@@H](CC(C)C)C(=O)N[C@@H](CC(C)C)C(=O)N[C@@H](Cc1ccc(O)cc1)C(=O)O)C(C)C` [3102.1336] (H-KMVYALLLY-OH) reads 2.7 nM. The result for `CSCC[C@H](NC(=O)[C@@H](N)CC(C)C)C(=O)N[C@H](C(=O)N[C@@H](CO)C(=O)NCC(=O)N1CCC[C@H]1C(=O)N[C@@H](CC(N)=O)C(=O)N[C@H](C(=O)N[C@H](C(=O)O)C(C)C)C(C)C)C(C)C` [3102.1249] (H-LMVSGPNVV-OH) reads 3.8 nM.

By IC50 is commonly meant the midpoint of a concentration-inhibition curve. A lower IC50 goes with higher potency.
